The source of these data is US11957680B2, “Pyruvate kinase activators for use in treating blood disorders” (Agios Pharmaceuticals, Inc., priority 2017, dated 2024).

Assay [1] has as its target T1, wild type PKR (Homo sapiens, UniProt P30613). Description: PKR (wild type) enzyme AC50 assay, LDH/NADH-coupled, absorbance at 340 nm. The conditions noted are these: for AC50: Table 2, enzyme assay, read-out: PKR WT AC50; for EC50: Table 4, AC50, enzyme assay, read-out: PKR WT. Type of assay: biochemical. An outline of the steps: (§1)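 Human PKR, wild type or K410E/R510Q mutant (40-400 ng/well), preincubated 60 min at room temperature with compound (11-point 3-fold series from 100 μM, 1% DMSO) in Tris pH 7.5/KCl/MgCl2 buffer with PEP 0.1-0.5 mM, 180 μM NADH, LDH. ADP (0.2-1.65 mM) started the reaction; LDH-coupled NADH consumption followed at 340 nm.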

For another assay, the target named is PKR K410E (Homo sapiens, UniProt P30613, K410E). Description: PKR mutant assay (K410E), AC50, LDH/NADH-coupled, absorbance at 340 nm. Type of assay: biochemical. The conditions noted are these: for AC50: Table 2, enzyme assay; for EC50: Table 4, AC50, enzyme assay. An outline of the steps:
as §1

The target of another assay is PKR R510Q (Homo sapiens, UniProt P30613, R510Q). Description: PKR mutant assay (R510Q), AC50, LDH/NADH-coupled, absorbance at 340 nm. Conditions: for AC50: read-out: PK R510Q AC50; for EC50: Table 4, AC50, enzyme assay, read-out: PK R510Q. Type of assay: biochemical. A digest of the protocol: as §1
Chain of PKR R510Q (P30613 whole entry R510Q): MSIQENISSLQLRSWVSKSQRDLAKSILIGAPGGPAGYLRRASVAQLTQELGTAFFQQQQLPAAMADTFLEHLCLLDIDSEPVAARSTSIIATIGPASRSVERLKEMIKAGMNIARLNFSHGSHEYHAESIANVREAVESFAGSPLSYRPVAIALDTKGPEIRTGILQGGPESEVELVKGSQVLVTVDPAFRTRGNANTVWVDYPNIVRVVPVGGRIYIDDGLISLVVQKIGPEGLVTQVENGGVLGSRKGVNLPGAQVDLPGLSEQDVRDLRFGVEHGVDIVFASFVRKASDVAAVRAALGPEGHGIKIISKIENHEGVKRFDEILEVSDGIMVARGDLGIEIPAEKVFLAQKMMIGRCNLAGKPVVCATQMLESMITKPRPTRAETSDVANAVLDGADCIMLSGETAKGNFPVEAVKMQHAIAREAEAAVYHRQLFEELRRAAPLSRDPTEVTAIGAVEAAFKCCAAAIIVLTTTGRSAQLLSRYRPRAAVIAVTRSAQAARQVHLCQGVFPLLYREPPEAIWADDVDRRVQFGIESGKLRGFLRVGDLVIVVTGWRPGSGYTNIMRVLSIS
Assay [2] concerns the target T1, wild type PKR. Description: Cell based ATP assay in purified red blood cells (Cell-Titer-Glo). Set-up: endogenous in cells; host or cells: purified red blood cells from healthy volunteers. Conditions: overnight at 37° C., ATP levels; for EC50: Table 4, AC50, RBCs. An outline of the steps:
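RBCs from healthy human donors' K2EDTA blood were leukocyte-depleted by filtration and resuspended in AGAM (PBS, 1% glucose, adenine, mannitol). Cells at 1×10^7 cells/mL were incubated overnight at 37 °C with serially diluted compound at 0.1% DMSO, and ATP was read by Cell-Titer-Glo luminescence.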

As a reminder, the AC50 is the midpoint of the concentration-response curve, whichever way the signal moves.

Molecules are shown by their SMILES.

T1 sequence (P30613 whole entry): as the sequence (P30613 whole entry R510Q) above, with Q510R counted along it
Chain of PKR K410E (P30613 whole entry K410E): as the sequence (P30613 whole entry R510Q) above, with K410E, Q510R counted along it

Take `Cn1c2nc(C#N)sc2c2cnn(Cc3csc(N)n3)c(=O)c21` [Compound 145]: the AC50 on wild type PKR [1] is 301 to 800 nM; at PKR K410E, 301 to 800 nM; at PKR R510Q (Table 2, enzyme assay) it was more than 800 nM; at wild type PKR [2] (Table 2, RBCs), more than 1000 nM.
On to `Cc1nc2c(s1)c1cnn(Cc3cccc4cn[nH]c34)c(=O)c1n2C` [Compound 65], for which the AC50 at wild type PKR [1] was more than 800 nM; at PKR K410E, 301 to 800 nM; at PKR R510Q (Table 2, enzyme assay) it was 301 to 800 nM; at wild type PKR [2] (Table 2, RBCs) it was more than 1000 nM.
In the case of `Cn1c2nc(Cc3c[nH]nn3)sc2c2cnn(Cc3ccc(OC(F)(F)F)cc3)c(=O)c21` [Compound 295], the EC50 at wild type PKR [1] is less than 300 nM; at PKR K410E it was less than 300 nM; on PKR R510Q it was less than 300 nM; on wild type PKR [2], not above 1000 nM.
In the case of `CC(=O)NCc1nc2c(s1)c1cnn(Cc3cccc4[nH]ncc34)c(=O)c1n2C` [Compound 139], the AC50 on wild type PKR [1] was less than 300 nM; at PKR K410E, less than 300 nM; at PKR R510Q (Table 2, enzyme assay), less than 300 nM; at wild type PKR [2] (Table 2, RBCs), not above 1000 nM.
Regarding `COc1cccc(Cn2ncc3c4sc(Cl)nc4n(C)c3c2=O)c1` [Compound 30], the AC50 is less than 300 nM on wild type PKR [1]; 301 to 800 nM on PKR K410E; less than 300 nM at PKR R510Q (Table 2, enzyme assay); more than 1000 nM on wild type PKR [2] (Table 2, RBCs).
With `Cn1c2nc(Cc3cc[nH]n3)sc2c2cnn(Cc3nccc4[nH]ncc34)c(=O)c21` [Compound 199], the EC50 on wild type PKR [1] was less than 300 nM; on PKR K410E it was less than 300 nM; on PKR R510Q it was less than 300 nM; on wild type PKR [2] it was not above 1000 nM.
Turning to `Cn1c2nc([S+](C)[O-])sc2c2cnn(Cc3cccc(C(C)(C)O)c3)c(=O)c21` (stereo not drawn) [Compound 87], the AC50 on wild type PKR [1] was less than 300 nM; at PKR K410E it was less than 300 nM; at PKR R510Q (Table 2, enzyme assay), 301 to 800 nM; on wild type PKR [2] (Table 2, RBCs), not above 1000 nM.
For the compound `Cn1c2nc(CN)sc2c2cnn(Cc3cccc4[nH]ncc34)c(=O)c21` [Compound 132], the AC50 at wild type PKR [1] is more than 800 nM; on PKR K410E, 301 to 800 nM; on PKR R510Q (Table 2, enzyme assay), 301 to 800 nM; on wild type PKR [2] (Table 2, RBCs) it was more than 1000 nM.
In the case of `COc1cccc(Cn2ncc3c4sc(C(=O)c5cccc(O)c5)nc4n(C)c3c2=O)c1` [Compound 55], the concentration at half-maximal activity (AC50) at wild type PKR [1] was 301 to 800 nM; at PKR K410E, more than 800 nM; on PKR R510Q (Table 2, enzyme assay) it was 301 to 800 nM; on wild type PKR [2] (Table 2, RBCs), more than 1000 nM.
For the compound `Cc1nc2c(s1)c1cnn(Cc3ccc4[nH]cnc4c3)c(=O)c1n2C` [Compound 73], the AC50 at wild type PKR [1] was more than 800 nM; on PKR K410E, 301 to 800 nM; at PKR R510Q (Table 2, enzyme assay) it was 301 to 800 nM; on wild type PKR [2] (Table 2, RBCs) it was more than 1000 nM.
Regarding `COc1cccc(Cn2ncc3c4sc(C(C)(C)O)nc4n(C)c3c2=O)c1` [Compound 63], the concentration at half-maximal activity (AC50) at wild type PKR [1] is less than 300 nM; at PKR K410E it was less than 300 nM; at PKR R510Q (Table 2, enzyme assay), less than 300 nM; at wild type PKR [2] (Table 2, RBCs) it was more than 1000 nM.
As to `Cn1c2nc(Cc3ccccc3)sc2c2cnn(Cc3cccc4[nH]ncc34)c(=O)c21` [Compound 91], the AC50 at wild type PKR [1] is less than 300 nM; at PKR K410E, less than 300 nM; on PKR R510Q (Table 2, enzyme assay), less than 300 nM; at wild type PKR [2] (Table 2, RBCs), not above 1000 nM.
As to `Cn1c2nc(Cc3cc[nH]n3)sc2c2cnn(Cc3ccc4cc[nH]c4n3)c(=O)c21` [Compound 380], the EC50 on wild type PKR [1] is less than 300 nM; on PKR K410E, less than 300 nM; on PKR R510Q, less than 300 nM; on wild type PKR [2] it was not above 1000 nM.
As for `Cn1c2nc(CNS(C)(=O)=O)sc2c2cnn(Cc3cccc4[nH]ncc34)c(=O)c21` [Compound 142], the AC50 was less than 300 nM on wild type PKR [1]; less than 300 nM on PKR K410E; 301 to 800 nM at PKR R510Q (Table 2, enzyme assay); not above 1000 nM at wild type PKR [2] (Table 2, RBCs).
For `Cn1c2nc(Cc3cccc(CO)c3)sc2c2cnn(Cc3cccc4[nH]ncc34)c(=O)c21` [Compound 118], the AC50 is less than 300 nM on wild type PKR [1]; less than 300 nM at PKR K410E; less than 300 nM on PKR R510Q (Table 2, enzyme assay); more than 1000 nM on wild type PKR [2] (Table 2, RBCs).
As to `COc1cccc(Cn2ncc3c4sc(Cc5ccccc5)nc4n(C)c3c2=O)c1` [Compound 5], the AC50 was less than 300 nM on wild type PKR [1]; less than 300 nM on PKR K410E; less than 300 nM on PKR R510Q (Table 2, enzyme assay); not above 1000 nM on wild type PKR [2] (Table 2, RBCs).
With `Cn1c2nc(Cc3cccc4cn[nH]c34)sc2c2cnn(Cc3cccc4[nH]ncc34)c(=O)c21` [Compound 181], the AC50 is less than 300 nM on wild type PKR [1]; less than 300 nM at PKR K410E; less than 300 nM at PKR R510Q (Table 2, enzyme assay); not above 1000 nM on wild type PKR [2] (Table 2, RBCs).
For `Cn1c2nc(Nc3ccccc3)sc2c2cnn(Cc3cccc4[nH]ncc34)c(=O)c21` [Compound 135], the AC50 at wild type PKR [1] and at PKR K410E was more than 800 nM in each case. For the same compound, the “PK R510Q AC50” value at PKR R510Q (Table 2, enzyme assay) is “No Fit”. At wild type PKR [2] (Table 2, RBCs), the “Cell based ATP assay AC50” value is reported as “No Fit”.
